# From patent US20240417405A1, “Substituted Spiro Derivatives” (Janssen Pharmaceutica NV, priority 2021, published 2024)
# Like-named read-outs stand apart in the source and are kept apart here.
# Assays:
# KO-52 cells = assay: Proliferation assay, spheroid-like growth, KO-52 (MLL wildtype control cell line); assay type: cell-based, human; conditions: KO-52 control cells, 8 days, confluence as measure of spheroid size, read-out: spheroid assay_OneTime KO-52 IC50
# Experimental: The anti-proliferative effect of menin/MLL protein/protein interaction inhibitor test compounds was assessed in human leukemia cell lines. The cell line MOLM14 harbors a MLL translocation and expresses the MLL fusion proteins MLL-AF9, respectively, as well as the wildtype protein from the second allele. […] KO-52 was used as a control cell line containing two MLL (KMT2A) wildtype alleles in order to exclude compounds that display general cytotoxic effects.
# MOLM14 cells were cultured in RPMI-1640 (Sigma Aldrich) supplemented with 10% heat-inactivated fetal bovine serum (HyClone), 2 mM L-glutamine (Sigma Aldrich) and 50 μg/ml gentamycin (Gibco). KO-52 cell lines were propagated in alpha-MEM (Sigma Aldrich) supplemented with 20% heat-inactivated fetal bovine serum (HyClone), 2 mM L-glutamine (Sigma Aldrich) and 50 μg/ml gentamycin (Gibco).
# In order to assess the anti-proliferative effects, 200 MOLM14 cells, or 300 KO-52 cells were seeded in 200 μl media per well in 96-well round bottom, ultra-low attachment plates (Costar, catalogue number 7007). Cell seeding numbers were chosen based on growth curves to ensure linear growth throughout the experiment. Test compounds were added at different concentrations and the DMSO content was normalized to 0.3%. Cells were incubated for 8 days at 37° C. and 5% CO2. Spheroid like growth was measured in real-time by live-cell imaging (IncuCyteZOOM, Essenbio, 4× objective) acquiring images at day 8. Confluence (%) as a measure of spheroid size was determined using an integrated analysis tool.
# In order to determine the effect of the test compounds over time, the confluence in each well as a measure of spheroid size, was calculated. Confluence of the highest dose of a reference compound was used as baseline for the LC (Low control) and the confluence of DMSO treated cells was used as 0% cytotoxicity (High Control, HC).
# Absolute IC50 values were calculated as percent change in confluence as follows:
# LC=Low Control: cells treated with e.g. 1 μM of the cytotoxic agent staurosporin, or e.g. cells treated with a high concentration of an alternative reference compound
# GraphPad Prism (version 7.00) was used to calculate the IC50. Dose-response equation was used for the plot of % Effect vs Log 10 compound concentration with a variable slope and fixing the maximum to 100% and the minimum to 0%.
# [1] = molecular target: T1, menin/MLL (terbium chelate-labeled menin, FITC-MBM1 peptide) (Homo sapiens, UniProt O00255, T541A); assay: Menin/MLL homogenous time-resolved fluorescence (HTRF) assay; assay type: binding; conditions: 30 min incubation
# T1 construct: Menin (a.a 1-610-6xhis tag)
# T1 sequence (O00255 with tags, fused parts or gaps T541A): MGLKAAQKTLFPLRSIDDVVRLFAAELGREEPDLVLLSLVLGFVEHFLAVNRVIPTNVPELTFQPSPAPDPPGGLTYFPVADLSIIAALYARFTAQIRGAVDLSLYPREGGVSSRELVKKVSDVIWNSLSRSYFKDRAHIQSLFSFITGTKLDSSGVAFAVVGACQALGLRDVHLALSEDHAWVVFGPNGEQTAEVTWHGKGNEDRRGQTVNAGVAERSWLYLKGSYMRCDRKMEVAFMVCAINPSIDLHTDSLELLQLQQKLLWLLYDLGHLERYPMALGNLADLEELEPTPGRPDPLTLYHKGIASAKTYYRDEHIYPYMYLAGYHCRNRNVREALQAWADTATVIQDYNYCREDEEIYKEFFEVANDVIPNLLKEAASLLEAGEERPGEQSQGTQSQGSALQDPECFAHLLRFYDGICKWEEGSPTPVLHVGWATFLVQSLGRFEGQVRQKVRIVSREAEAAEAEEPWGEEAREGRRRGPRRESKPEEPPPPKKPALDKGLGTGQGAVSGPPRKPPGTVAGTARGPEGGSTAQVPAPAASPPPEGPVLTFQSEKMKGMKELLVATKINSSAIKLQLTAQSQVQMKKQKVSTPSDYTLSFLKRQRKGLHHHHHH
# Outline: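 Terbium-labeled menin (aa 1-610, His-tagged; 200 pM) preincubated 30 min with compound, then 75 nM FITC-MBM1 peptide added for 15 min at ambient temperature in pH 7.5 Tris buffer, 0.5% DMSO. HTRF ratio 520/490 nm converted to % inhibition. IC50 came from an 11-point four-fold titration from 10 μM, floor 0.1 nM.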
# MOLM14 cells = assay: Proliferation assay, spheroid-like growth, MOLM14 (MLL-AF9 rearranged); assay type: cell-based, human; conditions: 8 days, confluence as measure of spheroid size, read-out: spheroid assay_OneTime MOLM14 IC50
# Outline: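 Cells seeded in ultra-low attachment round-bottom wells (200 MOLM14 or 300 KO-52 per well) with compound at several concentrations, DMSO 0.3%, grown 8 days at 37° C, 5% CO2. Spheroid size taken as confluence from day-8 live-cell images; IC50 from variable-slope fit, DMSO as 0% and high-dose reference compound as 100% effect.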
IC50 [1] [nM],"IC50 (MOLM14 cells; Homo sapiens, MOLM-14, 192 h) [nM]",IC50 (MOLM14 cells) [nM],Structure (SMILES),"IC50 (KO-52 cells; Homo sapiens, 192 h) [nM]",IC50 (KO-52 cells) [nM]
0.2,10,,"CC(C)[C@H]([C@H]1C[C@@H](N2CC[C@@H](O)C23CC3)C1)N1CC2(CCN(c3ncnnc3Oc3ccc(F)cc3-c3cncnc3C3CC3)C2)C1 (single isomer, unassigned) [Compound 40]",500,
0.2,12,,"CC(C)[C@H]([C@H]1C[C@@H](N2CC[C@H](O)C23CC3)C1)N1CC2(CCN(c3ncnnc3Oc3ccc(F)cc3-c3cncnc3C3CC3)C2)C1 (single isomer, unassigned) [Compound 41]",> 15000,
0.2,< 2,,"CC(C)[C@H]([C@H]1C[C@@H](N2C[C@H](O)C3(CC3)C2)C1)N1CC2(CCN(c3ncnnc3Oc3ccc(F)cc3-c3cncnc3C3CC3)C2)C1 (single isomer, unassigned) [Compound 45]",6330,
0.1,2,,"CC(C)[C@H]([C@H]1C[C@@H](N2C[C@@H](O)C3(CC3)C2)C1)N1CC2(CCN(c3ncnnc3Oc3ccc(F)cc3-c3cncnc3C3CC3)C2)C1 (single isomer, unassigned) [Compound 46]",5930,
0.2,3,,"CC(C)[C@H]([C@H]1C[C@@H](N2CC[C@@](C)(O)C2)C1)N1CC2(CCN(c3ncnnc3Oc3ccc(F)cc3-c3cncnc3C3CC3)C2)C1 (single isomer, unassigned) [Compound 47]",4360,
0.3,4,,"CC(C)[C@H]([C@H]1C[C@@H](N2CCCCC2)C1)N1CC2(CCN(c3ncnnc3Oc3ccc(F)cc3-c3cncnc3C3CC3)C2)C1 (single isomer, unassigned) [Compound 48]",1060,
0.6,27,,"CC(C)[C@H]([C@H]1C[C@H](N2CCCCC2)C1)N1CC2(CCN(c3ncnnc3Oc3ccc(F)cc3-c3cncnc3C3CC3)C2)C1 (single isomer, unassigned) [Compound 49]",2130,
0.1,< 2,,"CC(C)[C@H]([C@H]1C[C@@H](N2CCC[C@@H](C(=O)N(C)C)C2)C1)N1CC2(CCN(c3ncnnc3Oc3ccc(F)cc3-c3cncnc3C3CC3)C2)C1 (single isomer, unassigned) [Compound 50]",> 15000,
0.1,14,,"CC(C)[C@H]([C@H]1C[C@@H](N2CCC[C@H](C(=O)N(C)C)C2)C1)N1CC2(CCN(c3ncnnc3Oc3ccc(F)cc3-c3cncnc3C3CC3)C2)C1 (single isomer, unassigned) [Compound 51]",14400,
0.4,210,,"CC(C)[C@H]([C@H]1C[C@H](N2CCC[C@H](C(=O)N(C)C)C2)C1)N1CC2(CCN(c3ncnnc3Oc3ccc(F)cc3-c3cncnc3C3CC3)C2)C1 (single isomer, unassigned) [Compound 52]",14000,
0.2,5,,"CC(=O)N1CC2(CCN([C@H]3C[C@@H]([C@@H](C(C)C)N4CC5(CCN(c6ncnnc6Oc6ccc(F)cc6-c6cncnc6C6CC6)C5)C4)C3)C2)C1 (single isomer, unassigned) [Compound 53]",9280,
0.3,,28,"CC(=O)N1CCC2C1CCN2[C@H]1C[C@@H]([C@@H](C(C)C)N2CC3(CCN(c4ncnnc4Oc4ccc(F)cc4-c4cncnc4C4CC4)C3)C2)C1 (single isomer, unassigned) [Compound 54]",4960,
0.5,,95,"CC(=O)N1CCC2C1CCN2[C@H]1C[C@@H]([C@@H](C(C)C)N2CC3(CCN(c4ncnnc4Oc4ccc(F)cc4-c4cncnc4C4CC4)C3)C2)C1 (single isomer, unassigned) [Compound 55]",,6430
0.4,350,,"CC(=O)N1CC2(CCCN2[C@H]2C[C@@H]([C@@H](C(C)C)N3CC4(CCN(c5ncnnc5Oc5ccc(F)cc5-c5cncnc5C5CC5)C4)C3)C2)C1 (single isomer, unassigned) [Compound 56]",> 15000,
0.1,,8,"CC(=O)N1CCC2CN([C@H]3C[C@@H]([C@@H](C(C)C)N4CC5(CCN(c6ncnnc6Oc6ccc(F)cc6-c6cncnc6C6CC6)C5)C4)C3)CC21 (single isomer, unassigned) [Compound 57]",7540,
0.1,,19,"CC(=O)N1CCC2CN([C@H]3C[C@@H]([C@@H](C(C)C)N4CC5(CCN(c6ncnnc6Oc6ccc(F)cc6-c6cncnc6C6CC6)C5)C4)C3)CC21 (single isomer, unassigned) [Compound 58]",,> 15000
0.1,24,,"CC(=O)N1CC[C@@]12CCN([C@H]1C[C@@H]([C@@H](C(C)C)N3CC4(CCN(c5ncnnc5Oc5ccc(F)cc5-c5cncnc5C5CC5)C4)C3)C1)C2 (single isomer, unassigned) [Compound 59]",5010,
0.2,7,,"CC(=O)N1CC[C@]12CCN([C@H]1C[C@@H]([C@@H](C(C)C)N3CC4(CCN(c5ncnnc5Oc5ccc(F)cc5-c5cncnc5C5CC5)C4)C3)C1)C2 (single isomer, unassigned) [Compound 60]",3370,
0.1,4,,"CC(C)[C@H]([C@H]1C[C@@H](N2CCC(C)(C(=O)N(C)C)CC2)C1)N1CC2(CCN(c3ncnnc3Oc3ccc(F)cc3-c3cncnc3C3CC3)C2)C1 (single isomer, unassigned) [Compound 62]",6260,
0.1,2,,"CC(=O)N1CC2CN([C@H]3C[C@@H]([C@@H](C(C)C)N4CC5(CCN(c6ncnnc6Oc6ccc(F)cc6-c6cncnc6C6CC6)C5)C4)C3)CC2C1 (single isomer, unassigned) [Compound 64]",> 15000,
0.2,130,,"CC(=O)N1CC2CN([C@H]3C[C@H]([C@@H](C(C)C)N4CC5(CCN(c6ncnnc6Oc6ccc(F)cc6-c6cncnc6C6CC6)C5)C4)C3)CC2C1 (single isomer, unassigned) [Compound 65]",11800,
0.1,6,,"CC(C)[C@H]([C@H]1C[C@@H](N2CC[C@@]3(CCN(C)C3=O)C2)C1)N1CC2(CCN(c3ncnnc3Oc3ccc(F)cc3-c3cncnc3C3CC3)C2)C1 (single isomer, unassigned) [Compound 66]",> 15000,
